The values below come from patent EP3900733A1, “SRC KINASE ACTIVATORS AND ENG FUNCTION INHIBITORS AS ENHANCERS OF SKIN HOMEOSTASIS/REGENERATION AND HAIR GROWTH” (Derma Innovate S.L., priority 2020, dated 2021).

Square brackets hold non-standard residues; d marks the D form. Ends that are not written are not given here. pY = N[C@@H](Cc1ccc(OP(=O)(O)O)cc1)C(=O)O

Common to all, as to assay type: cell-based
Test [1] relates to ex vivo grown human hair follicles. The test is described as follows: Activation of ex vivo cultured hair follicles (hair bulb area image analysis, histology, Ki67). The conditions noted are these: for proliferation and differentiation of the hair bulb area (hair follicle activation): combination of PT (mALA and red light), 24 hours after treatments. The procedure:
Human hair follicles were obtained from human scalp samples taken from the occipital skin of volunteer donors during a hair transplant procedure. Eligible patients provided written informed consent, and the Ethical committee of the Ramon y Cajal Hospital approved this procedure.
Follicular units (FUs) were dissected using scalpels under a magnifier, and the ones in resting phase (telogen) were selected. Those FUs were transferred to the laboratory and maintained at 4 °C until processed in Williams' medium E (Sigma) supplemented with 10x Penicilin/Streptomycin, 10x Aphotericin B, and 2 mM L-Glutamin (all from Gibco), 5 µg/ml Insulin, 5 µg/ml transferring, 20 pM T3 hormone, 0.083 µg/ml cholera toxin and 0.4 µg/ml hydrocortisone. FUs can be stored in complete Williams' medium at 4 °C for approximately 5 days without significant loss of the mini organ function. FU cultures were maintained at 37°C in a 5% CO2 humidified atmosphere.
Endogenous protoporphyrin IX (PpIX)-dependent photodynamic treatments (PT) were routinely performed on exponentially growing cells at 60% of confluence, as well as in ex vivo cultured hair follicles (HF) (Carrasco E et al. Methods 15:109, 2016; Calvo-Sanchez MI et al. Sci. Rep.9:4509, 2019). To that end, cells and HFs were incubated for 2-4 hours, normally 2 hours, with 0.1 mM of a PpIX metabolic precursor (typically, aminolevulinic acid ALA, or the ALA methylated derivative methyl aminolevulinate mALA) in the corresponding medium in the absence of serum or growth factors. Immediately, approximately 1 minute, after the incubation step the samples were further irradiated 2-15 min, normally between 8 and 10 minutes, with a red-light emitting diode source with an emission peak at 634 nm bandwidth, with a total light dose of 2-10 J/cm^2, normally 4 J/cm^2 (Carrasco E et al. Methods 15:109, 2016; Calvo-Sanchez MI et al. Sci. Rep.9:4509, 2019). […] Additionally, total controls in strict dark conditions (no PpIX precursor, no light) were evaluated for each biological model, although this control was not routinely used in experimental series since ambient light is an unavoidable contaminant, and the light control is the most adequate in this experimental design.
For the quantification of the number of cells in cell cultures after different treatments, a Bio-Rad TC20™ automated cell counter was used following the instructions of the manufacturer. […] Image acquisition was performed using a Nikon Eclipse Ci LED-fluorescence microscope using a 2x objective and a 0.55x Reduction Lens adapter coupled to a Jenoptik PROGRES GRYPHAX® SUBRA Super HD camera and suited Version 1.1.8.153 image software pack. […] Total hair bulb area in high resolution images of whole hair follicles was spotted and quantified using suited free FIJI software packs (https://fiji.sc/). […]

Test [2] relates to mouse E14 embryonic stem cells. The test is described as follows: Cell proliferation (automated cell counting), with or without phototreatment. The conditions noted are these: for enhancement of PT-induced cell proliferation: PT (mALA and red light) combined with YEEI phosphopeptide and/or S-Eng, 48 hours after irradiation. The procedure:
(§1) E14 cell line is a derivative of mice embryonic stem cells (ES) obtained from the Inner Cell Mass of 129/Ola mouse strain blastocyst. E14 cells were grown on 0,1% gelatin-coated flasks in GMEM supplemented with 10% FCS tested for stem cells, 0.1 mM mixture of Non Essential Amino acids (NEAA, composed by Glycine, L-Alanine, L-Asparagine, L-Aspartic Acid, L-Glutamic acid, L-Proline and L-Serine), 2 mM L-Glutamine, 1 mM sodium pyruvate, 0.05 mM β-mercaptoethanol, Penicilin/Streptomicin (100 U/ml / 100 µg/ml) and 2.5 µg/ml amphotericin B (all from Gibco) and 1,000 U/ml LIF (Millipore), and splitted 1:8 to 1:10 every 2-3 days using Trypsin-EDTA (Invitrogen) (Smith, 1991; Cambray et al, 2012). Cells were maintained at 37°C in a 5% CO2 humidified atmosphere. The medium was changed on alternative days.
Endogenous protoporphyrin IX (PpIX)-dependent photodynamic treatments (PT) were routinely performed on exponentially growing cells at 60% of confluence, as well as in ex vivo cultured hair follicles (HF) (Carrasco E et al. Methods 15:109, 2016; Calvo-Sanchez MI et al. Sci. Rep.9:4509, 2019). […] Additionally, total controls in strict dark conditions (no PpIX precursor, no light) were evaluated for each biological model, although this control was not routinely used in experimental series since ambient light is an unavoidable contaminant, and the light control is the most adequate in this experimental design.
(§2) Here the functional activation of the cSrc kinase has been specifically associated with the phosphorilation of the Tyr419 residue (or equivalent) of the cSrc protein (Espada J and Martin-Perez J. Int Rev Cell Mol Biol 331:82, 2017). […] The biological activity of each YEEI phosphopeptide batch was evaluated by immunoblot detection of cSrc-Tyr419 levels in protein extracts obtained from treated cell cultures (see Figure 1) […]

The test system of test [3] is human primary skin fibroblasts. The description is as above. To be noted: for enhancement of PT-induced cell proliferation: human primary fibroblasts, 48 hours after irradiation. The protocol: Primary cultures of human fibroblasts were obtained from normal human skin. Collection of skin biopsy punches, 4mm diameter, from volunteer donors was routinely performed in the Dermatology Service of the Ramon y Cajal University Hospital, Madrid, Spain, following the regulations of the hospital ethics committee for human research, eligible patients providing written informed consent.
Skin samples were transferred to the laboratory and maintained at 4 °C in DMEM medium (Gibco) with 10x Penicilin/Streptomycin and 10x Aphotericin B until processed, not exceeding 24h. Then, the subcutaneous layer was removed using scalpels, and skin biopsies were cut in small pieces of 1-4 mm^2. In order to obtain primary fibroblasts, skin pieces were incubated in 1mg/ml of collagenase A enzyme (Roche) solution for 4 hours at 37 °C, in mild agitation in order to help cell dissociation.
The supernatant containing the fibroblasts was vigorously pipetted and diluted in DMEM medium supplemented with 10% FCS, 2 mM L-Glutamine, Penicilin/Streptomicin (100 U/ml / 100 µg/ml) and 2.5 µg/ml amphotericin B and centrifuged for five minutes at 1500 RPM. The pellet was resuspended in complete DMEM medium and the fibroblasts were seeded in a maximum density of 1 million cells per ml using a 24 well plate and routinely grown at 37°C in a humidified atmosphere containing CO2 5%. 24 hours later, medium was removed to eliminate all detached cells. The cells were passaged when they reached 70-80% confluency, in order to prevent differentiation. The primary culture reached appropriate confluence after 8 to 10 days, and the derivative subcultures were splitted 1:4 once a week. After 10 to 20 passages, cells undergo senescence.
Endogenous protoporphyrin IX (PpIX)-dependent photodynamic treatments (PT) were routinely performed on exponentially growing cells at 60% of confluence, as well as in ex vivo cultured hair follicles (HF) (Carrasco E et al. Methods 15:109, 2016; Calvo-Sanchez MI et al. Sci. Rep.9:4509, 2019). To that end, cells and HFs were incubated for 2-4 hours, normally 2 hours, with 0.1 mM of a PpIX metabolic precursor (typically, aminolevulinic acid ALA, or the ALA methylated derivative methyl aminolevulinate mALA) in the corresponding medium in the absence of serum or growth factors. Immediately, approximately 1 minute, after the incubation step the samples were further irradiated 2-15 min, normally between 8 and 10 minutes, with a red-light emitting diode source with an emission peak at 634 nm bandwidth, with a total light dose of 2-10 J/cm^2, normally 4 J/cm^2 (Carrasco E et al. Methods 15:109, 2016; Calvo-Sanchez MI et al. Sci. Rep.9:4509, 2019). Immediately after irradiation, approx. 1 minute after, samples were washed in PBS, fresh medium was added, and were further routinely grown at 37°C in a humidified atmosphere containing CO2 5%. When required, activators of cSrc kinase or inhibitors of Eng function (see below) were added, alone or in combination, in the fresh medium used immediately after irradiation, and samples were subsequently incubated for the indicated times. […] Additionally, total controls in strict dark conditions (no PpIX precursor, no light) were evaluated for each biological model, although this control was not routinely used in experimental series since ambient light is an unavoidable contaminant, and the light control is the most adequate in this experimental design. […]

The subject of test [4] is cSrc kinase. The test is described as follows: cSrc Tyr419 phosphorylation by immunoblot in treated cell cultures. To be noted: mouse E14 embryonic stem cells; peptide 100 nM; Figure 1A. The protocol:
as §1, §2
A general note: In western blotting, separated proteins are transferred to a membrane and probed.

As for “Glu-Pro-Gln-Tyr(PO3H2)-Glu-Glu-Ile-Pro-Ile-Tyr-Leu (EPQ[pY]EEIPIYL) [YEEI phosphopeptide]”, the “proliferation and differentiation of the hair bulb area (hair follicle activation)” value in test [1] (YEEI phosphopeptide and Apt1 or Apt2, Figure 9) is “significantly promotes”; in test [1] (YEEI phosphopeptide and siRNA of SEQ ID NO 2, Figure 8) it was “significantly promotes”. The “induction of cell proliferation” value is given as “statistically significant induction” in test [2] (48 hours after treatments, peptide alone, Figure 1B) and “statistically significant induction” in test [3] (human primary skin fibroblasts, 48 hours after treatments, peptide alone, Figure 1B). Besides, the “enhancement of PT-induced cell proliferation” value in test [2] (Figure 3) is recorded as “significantly enhanced”; in test [2] (Figure 3, listed as YEEI peptide) it was “markedly enhanced”; in test [3] (PT (mALA and red light) combined with YEEI phosphopeptide and/or Apt1 or Apt2, Figure 5), “significantly enhanced”; in test [3] (PT (mALA and red light) combined with YEEI phosphopeptide and/or Apt1 or Apt2, Figure 5, listed as YEEI peptide) it was “markedly increased”; in test [3] (PT (mALA and red light) combined with YEEI phosphopeptide and/or siRNA of SEQ ID NO 2, Figure 4), “significantly enhanced”; in test [3] (PT (mALA and red light) combined with YEEI phosphopeptide and/or siRNA of SEQ ID NO 2, Figure 4, listed as YEEI peptide) it was “markedly increased”. Also, in test [4], the “Tyr419 cSRC phosphorilation” value was “induced”.
As for `COC(=O)CCC(=O)CN` [mALA, methyl aminolevulinate], the “time after PT at which HF activation is evident” value in test [1] (PT using mALA and red light, compared to control, Figure 6) turned out to be 5 days. The “time after treatment at which activation occurs” value in test [1] (photodynamic treatment with mALA and red light, Figures 6 and 7) is recorded as “approximately 5 days”.
